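These data come from cells grown in 96-well plates and exposed to compound for 48 hours at five concentrations. The concentration for 50% growth inhibition is given as GI50. TGI is the concentration that stops growth completely.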
Experiments:
Experiment in all cases: DTP human tumour cell line panel, 48 h
MCF7 breast = system: MCF7 breast
NCI-H460 lung = system: NCI-H460 lung
HCT-15 colon = system: HCT-15 colon
M14 melanoma = system: M14 melanoma
SW-620 colon = system: SW-620 colon
NCI-H226 lung = system: NCI-H226 lung
U251 CNS = system: U251 CNS
ACHN renal = system: ACHN renal
NCI/ADR-RES ovarian = system: NCI/ADR-RES ovarian
OVCAR-8 ovarian = system: OVCAR-8 ovarian
HL-60(TB) leukemia = system: HL-60(TB) leukemia
MDA-MB-231 breast = system: MDA-MB-231 breast
OVCAR-4 ovarian = system: OVCAR-4 ovarian
HS 578T breast = system: HS 578T breast
A498 renal = system: A498 renal
BT-549 breast = system: BT-549 breast
RXF 393 renal = system: RXF 393 renal
SF-268 CNS = system: SF-268 CNS
MALME-3M melanoma = system: MALME-3M melanoma
UACC-257 melanoma = system: UACC-257 melanoma
OVCAR-5 ovarian = system: OVCAR-5 ovarian
SN12C renal = system: SN12C renal
SK-MEL-2 melanoma = system: SK-MEL-2 melanoma
SK-MEL-28 melanoma = system: SK-MEL-28 melanoma
LOX IMVI melanoma = system: LOX IMVI melanoma
IGROV1 ovarian = system: IGROV1 ovarian
MDA-MB-468 breast = system: MDA-MB-468 breast
UACC-62 melanoma = system: UACC-62 melanoma
MOLT-4 leukemia = system: MOLT-4 leukemia
T-47D breast = system: T-47D breast
SF-295 CNS = system: SF-295 CNS
A549 NSCLC = system: A549 NSCLC
NCI-H522 lung = system: NCI-H522 lung
SNB-19 CNS = system: SNB-19 CNS
EKVX NSCLC = system: EKVX NSCLC
TK-10 renal = system: TK-10 renal
HT29 colon = system: HT29 colon
HCT-116 colon = system: HCT-116 colon
NCI-H23 lung = system: NCI-H23 lung
HOP-62 NSCLC = system: HOP-62 NSCLC
SK-MEL-5 melanoma = system: SK-MEL-5 melanoma
DU-145 prostate = system: DU-145 prostate
UO-31 renal = system: UO-31 renal
MDA-MB-435 = system: MDA-MB-435
CAKI-1 renal = system: CAKI-1 renal
RPMI-8226 leukemia = system: RPMI-8226 leukemia
K-562 leukemia = system: K-562 leukemia
PC-3 prostate = system: PC-3 prostate
COLO 205 colon = system: COLO 205 colon
786-0 renal = system: 786-0 renal
KM12 colon = system: KM12 colon
HCC-2998 colon = system: HCC-2998 colon
SR leukemia = system: SR leukemia
CCRF-CEM leukemia = system: CCRF-CEM leukemia
SK-OV-3 ovarian = system: SK-OV-3 ovarian
SF-539 CNS = system: SF-539 CNS
OVCAR-3 ovarian = system: OVCAR-3 ovarian

SMILES: Cc1ccc2nc3c(nc2c1)c1cc(I)ccc1n3CCN(C)C
- GI50 (MCF7 breast): 3.35 µM
- TGI (MCF7 breast): 13.9 µM
- GI50 (NCI-H460 lung): 3.51 µM
- TGI (NCI-H460 lung): 14 µM
- GI50 (HCT-15 colon): 3.14 µM
- TGI (HCT-15 colon): 12.9 µM
- GI50 (M14 melanoma): 11.1 µM
- TGI (M14 melanoma): 25.4 µM
- GI50 (SW-620 colon): 3.61 µM
- TGI (SW-620 colon): 15.9 µM
- GI50 (NCI-H226 lung): 5.98 µM
- TGI (NCI-H226 lung): 23.4 µM
- GI50 (U251 CNS): 4.66 µM
- TGI (U251 CNS): 16 µM
- GI50 (ACHN renal): 3.05 µM
- TGI (ACHN renal): 13.2 µM
- GI50 (NCI/ADR-RES ovarian): 4.67 µM
- TGI (NCI/ADR-RES ovarian): 18.4 µM
- GI50 (OVCAR-8 ovarian): 3.72 µM
- TGI (OVCAR-8 ovarian): 15.2 µM
- GI50 (HL-60(TB) leukemia): 3.16 µM
- TGI (HL-60(TB) leukemia): 20.5 µM
- GI50 (MDA-MB-231 breast): 4.25 µM
- TGI (MDA-MB-231 breast): 18 µM
- GI50 (OVCAR-4 ovarian): 6.19 µM
- TGI (OVCAR-4 ovarian): 20.7 µM
- GI50 (HS 578T breast): 12.5 µM
- TGI (HS 578T breast): 34.3 µM
- GI50 (A498 renal): 14.2 µM
- TGI (A498 renal): 29.3 µM
- GI50 (BT-549 breast): 14.8 µM
- TGI (BT-549 breast): 28.8 µM
- GI50 (RXF 393 renal): 4.24 µM
- TGI (RXF 393 renal): 15.7 µM
- GI50 (SF-268 CNS): 5.36 µM
- TGI (SF-268 CNS): 19.2 µM
- GI50 (MALME-3M melanoma): 10.3 µM
- TGI (MALME-3M melanoma): 23.1 µM
- GI50 (UACC-257 melanoma): 13.4 µM
- TGI (UACC-257 melanoma): 27 µM
- GI50 (OVCAR-5 ovarian): 5.36 µM
- TGI (OVCAR-5 ovarian): 18.5 µM
- GI50 (SN12C renal): 3.92 µM
- TGI (SN12C renal): 15.5 µM
- GI50 (SK-MEL-2 melanoma): 13.2 µM
- TGI (SK-MEL-2 melanoma): 26.4 µM
- GI50 (SK-MEL-28 melanoma): 13.8 µM
- TGI (SK-MEL-28 melanoma): 26.7 µM
- GI50 (LOX IMVI melanoma): 3.72 µM
- TGI (LOX IMVI melanoma): 14.4 µM
- GI50 (IGROV1 ovarian): 4.87 µM
- TGI (IGROV1 ovarian): 18.5 µM
- GI50 (MDA-MB-468 breast): 4.12 µM
- TGI (MDA-MB-468 breast): 17.3 µM
- GI50 (UACC-62 melanoma): 11.7 µM
- TGI (UACC-62 melanoma): 24 µM
- GI50 (MOLT-4 leukemia): 7.02 µM
- TGI (MOLT-4 leukemia): 24.8 µM
- GI50 (T-47D breast): 7.9 µM
- TGI (T-47D breast): 24.9 µM
- GI50 (SF-295 CNS): 4.09 µM
- TGI (SF-295 CNS): 16.2 µM
- GI50 (A549 NSCLC): 3.66 µM
- TGI (A549 NSCLC): 14.2 µM
- GI50 (NCI-H522 lung): 4.64 µM
- TGI (NCI-H522 lung): 18.5 µM
- GI50 (SNB-19 CNS): 9.48 µM
- TGI (SNB-19 CNS): 21.4 µM
- GI50 (EKVX NSCLC): 7.08 µM
- TGI (EKVX NSCLC): 20.9 µM
- GI50 (TK-10 renal): 13.8 µM
- TGI (TK-10 renal): 27.8 µM
- GI50 (HT29 colon): 3.42 µM
- TGI (HT29 colon): 13.4 µM
- GI50 (HCT-116 colon): 3.6 µM
- TGI (HCT-116 colon): 14.4 µM
- GI50 (NCI-H23 lung): 6.07 µM
- TGI (NCI-H23 lung): 19.6 µM
- GI50 (HOP-62 NSCLC): 4.81 µM
- TGI (HOP-62 NSCLC): 20.5 µM
- GI50 (SK-MEL-5 melanoma): 12.1 µM
- TGI (SK-MEL-5 melanoma): 25.2 µM
- GI50 (DU-145 prostate): 5.04 µM
- TGI (DU-145 prostate): 16.8 µM
- GI50 (UO-31 renal): 1.92 µM
- TGI (UO-31 renal): 15.8 µM
- GI50 (MDA-MB-435): 7.41 µM
- TGI (MDA-MB-435): 20 µM
- GI50 (CAKI-1 renal): 3.78 µM
- TGI (CAKI-1 renal): 17.9 µM
- GI50 (RPMI-8226 leukemia): 7.59 µM
- TGI (RPMI-8226 leukemia): 25.4 µM
- GI50 (K-562 leukemia): 4.06 µM
- TGI (K-562 leukemia): 18.8 µM
- GI50 (PC-3 prostate): 3.84 µM
- TGI (PC-3 prostate): 17.5 µM
- GI50 (COLO 205 colon): 3.56 µM
- TGI (COLO 205 colon): 16.7 µM
- GI50 (786-0 renal): 5.54 µM
- TGI (786-0 renal): 19.1 µM
- GI50 (KM12 colon): 4.13 µM
- TGI (KM12 colon): 16.8 µM
- GI50 (HCC-2998 colon): 3.81 µM
- TGI (HCC-2998 colon): 15.3 µM
- GI50 (SR leukemia): 3.18 µM
- TGI (SR leukemia): 14.8 µM
- GI50 (CCRF-CEM leukemia): 12.6 µM
- TGI (CCRF-CEM leukemia): 28.7 µM
- GI50 (SK-OV-3 ovarian): 13.3 µM
- TGI (SK-OV-3 ovarian): 30.5 µM
- GI50 (SF-539 CNS): 4.87 µM
- TGI (SF-539 CNS): 17.2 µM
- GI50 (OVCAR-3 ovarian): 5.63 µM
- TGI (OVCAR-3 ovarian): 18.7 µM

From PubChem BioAssay (NCI)
